The source of these data is patent US20150315211A1, “SMALL MOLECULES FOR THE MODULATION OF MCL-1 AND METHODS OF MODULATING CELL DEATH, CELL DIVISION, CELL DIFFERENTIATION AND METHODS OF TREATING DISORDERS” (priority 2010, published 2015).

One assay addresses BCL-XLΔC (Homo sapiens, UniProt Q07817). Kind of assay: High-throughput competitive FP binding screen, FITC-BAD BH3/BCL-XLΔC interaction. The conditions noted are these: FITC-BAD BH3/BCL-XLΔC interaction pair, competitive FP screen.
Assay [1] deals with MCL-1ΔNΔC. Briefly: High-throughput competitive FP binding screen, FITC-MCL-1 SAHB/MCL-1ΔNΔC interaction. The conditions noted are these: selectivity for MCL-1ΔNΔC over BCL-XLΔC targeting (BCL-XL % Bound minus MCL-1 % Bound).
The target of assay [2] is MCL-1ΔNΔC (Homo sapiens, UniProt Q07820). The description is as above. The conditions noted are these: FITC-MCL-1 SAHB/MCL-1ΔNΔC interaction pair, competitive FP screen. More on the design: the C-terminal alpha-helix was deleted from each of these constructs; GST (N, cleaved yes); made in house.
MCL-1ΔNΔC (Homo sapiens, UniProt Q07820), sequence (Q07820 172-320 limits assumed, stated change not applied): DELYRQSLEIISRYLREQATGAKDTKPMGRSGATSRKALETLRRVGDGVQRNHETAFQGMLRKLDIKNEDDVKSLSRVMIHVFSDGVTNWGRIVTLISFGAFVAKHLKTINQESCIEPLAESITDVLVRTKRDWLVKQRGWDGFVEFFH

BCL-XLΔC, sequence (Q07817 1-212 limits assumed, stated change not applied): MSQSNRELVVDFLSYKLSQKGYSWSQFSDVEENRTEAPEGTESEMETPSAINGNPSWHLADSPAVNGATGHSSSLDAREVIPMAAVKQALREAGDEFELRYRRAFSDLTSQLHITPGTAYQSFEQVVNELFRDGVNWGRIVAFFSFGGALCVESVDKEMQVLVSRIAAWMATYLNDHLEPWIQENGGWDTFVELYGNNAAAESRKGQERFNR

In the case of `CCn1c(-c2ccccc2)cnc1S`, the “BCL-XL % Bound” value on BCL-XLΔC stood at 105.8%. Also, in the assay on MCL-1ΔNΔC [1], the “Spec Values” stood at 51.73. In addition, the “MCL-1% Bound” value on MCL-1ΔNΔC [2] amounted to 54.03%.
Take `C=C/C(=C\C)N(CC)S(=O)(=O)c1ccc(Oc2ccc(-n3ccnc3)cc2)nc1`: the “BCL-XL % Bound” value on BCL-XLΔC worked out at 102.9%. Also, the “Spec Values” in the assay on MCL-1ΔNΔC [1] was determined as 51.73. Moreover, the “MCL-1% Bound” value on MCL-1ΔNΔC [2] came out at 51.21%.
The like results for `Cc1ccc(NCc2n[nH]c(=S)n2-c2ccccc2)cc1` were, in that order, 94.84%, 51.62 and 43.22%.
Turning to `COc1ccc(-n2nc3cc(C)c(N)c(Br)c3n2)cc1`, the “BCL-XL % Bound” value on BCL-XLΔC is 83.97%. Besides, in the assay on MCL-1ΔNΔC [1], the “Spec Values” is 51.41. Besides, the “MCL-1% Bound” value at MCL-1ΔNΔC [2] was determined as 32.56%.
The like results for `Cc1nn(-c2ccccc2)c2nc3ccccc3c(N3CCOCC3)c12` were, in that order, 98.28%, 50.97 and 47.31%.
Take `COc1cccc(OCc2nnc(SCc3ccccc3)n2C)c1`: on BCL-XLΔC, the “BCL-XL % Bound” value is given as 97.51%. For the same compound, the “Spec Values” in the assay with MCL-1ΔNΔC [1] is given as 50.95. Also, the “MCL-1% Bound” value on MCL-1ΔNΔC [2] was found to be 46.56%.
For the compound `CCOC(=O)c1c(C)oc2c1c1c(c3ccccc32)OCN(C2CC(C)(C)NC(C)(C)C2)C1`, the “BCL-XL % Bound” value on BCL-XLΔC came out at 85%. Besides, the “Spec Values” with MCL-1ΔNΔC [1] is listed as 50.9. The “MCL-1% Bound” value at MCL-1ΔNΔC [2] was 34.11%.
In the same order, the values of `CC1CCC(C(C)C)C(OC(=O)COC(=O)c2ccc(O)cc2)C1` (stereo not drawn) are 106.5%, 50.73 and 55.74%.
In the same order, the values of `Cc1cccc(CSc2ccc(-c3ccco3)nn2)c1` are 95.36%, 50.6 and 44.76%.
In the same order, the values of `CSc1sc(C(=O)/C=C/N(C)C)c(-c2cccs2)c1C#N` are 30.42%, 50.48 and −20.06%.
On to `CCOc1cc(/C=C(/C#N)c2cccc(Br)c2)ccc1OCc1ccc(C(=O)O)o1`, for which the “BCL-XL % Bound” value at BCL-XLΔC turned out to be 85.88%. Besides, in the assay with MCL-1ΔNΔC [1], the “Spec Values” is reported as 50.28. Also, the “MCL-1% Bound” value at MCL-1ΔNΔC [2] was 35.61%.
As for `Cc1nn(C)c2nc(NNC(=O)c3cccc(C(F)(F)F)c3)ccc12`, the “BCL-XL % Bound” value at BCL-XLΔC came out at 107.3%. Also, the “Spec Values” in the assay with MCL-1ΔNΔC [1] turned out to be 50.23. In addition, the “MCL-1% Bound” value on MCL-1ΔNΔC [2] is on record as 57.07%.
Turning to `CCOC(=O)c1ccc2nc(NC(=O)CSc3nc(C)cc(=O)[nH]3)sc2c1`, on BCL-XLΔC, the “BCL-XL % Bound” value worked out at 106.3%. Moreover, the “Spec Values” in the assay on MCL-1ΔNΔC [1] was found to be 49.78. In addition, the “MCL-1% Bound” value on MCL-1ΔNΔC [2] was found to be 56.55%.
The like results for `CC1=C(C)C/S(=N\S(=O)(=O)c2ccc(Cl)cc2)N(S(=O)(=O)c2ccc(Cl)cc2)C1` (stereo not drawn) were, in that order, 100.2%, 49.76 and 50.42%.
The like results for `O=c1ccc(-c2ccco2)nn1Cc1ccc(Cl)c(Cl)c1` were, in that order, 96.49%, 49.7 and 46.79%.
In the same order, the values of `CN1CCN(C(c2ccccn2)c2c(-c3ccccc3)n(O)c3ccccc23)CC1` (stereo not drawn) are 99.83%, 49.28 and 50.55%.
As to `Cc1c(Cl)cccc1N1C(=O)CC(N2CCCc3ccccc32)C1=O` (stereo not drawn), the “BCL-XL % Bound” value at BCL-XLΔC came out at 84.74%. Moreover, the “Spec Values” in the assay on MCL-1ΔNΔC [1] is reported as 48.92. Moreover, on MCL-1ΔNΔC [2], the “MCL-1% Bound” value was 35.82%.
The like results for `CC(C)(C)c1ccc(-c2nnc(S)[nH]2)cc1` were, in that order, 96.8%, 48.83 and 47.97%.
Consider `Cc1oc(-c2cccc(C(F)(F)F)c2)cc1C(=O)O`, for which, on BCL-XLΔC, the “BCL-XL % Bound” value is 81.9%. The “Spec Values” with MCL-1ΔNΔC [1] came out at 48.68. For the same compound, on MCL-1ΔNΔC [2], the “MCL-1% Bound” value turned out to be 33.22%.
The like results for `COc1cc(C(c2nnnn2C2CCCCC2)N2CCc3ccccc3C2)ccc1O` (stereo not drawn) were, in that order, 105.8%, 48.33 and 57.44%.
As for `CNc1sc(C(=O)c2cccs2)c(N)c1-c1nc2ccccc2s1`, the “BCL-XL % Bound” value at BCL-XLΔC is reported as 92.47%. Besides, the “Spec Values” with MCL-1ΔNΔC [1] was 48.22. Besides, the “MCL-1% Bound” value on MCL-1ΔNΔC [2] was determined as 44.25%.
Regarding `CCCCn1c2ccccc2c2nnc(S)nc21`, at BCL-XLΔC, the “BCL-XL % Bound” value was determined as 92.39%. Also, the “Spec Values” in the assay on MCL-1ΔNΔC [1] turned out to be 48.16. Further, the “MCL-1% Bound” value at MCL-1ΔNΔC [2] is 44.24%.
Take `CC1=CC(=O)C(CCCC2=CC(=O)C=CC2=O)=CC1=O`: the “BCL-XL % Bound” value at BCL-XLΔC came to 92.47%. The “Spec Values” with MCL-1ΔNΔC [1] was 48.07. Further, on MCL-1ΔNΔC [2], the “MCL-1% Bound” value is given as 44.41%.
As to `c1ccc(-c2ccc3c(c2)c2c4n3CCN=C4CCC2)cc1`, the “BCL-XL % Bound” value on BCL-XLΔC stood at 68.24%. The “Spec Values” in the assay on MCL-1ΔNΔC [1] came out at 47.9. Besides, the “MCL-1% Bound” value at MCL-1ΔNΔC [2] amounted to 20.34%.
The like results for `O=C(NCc1ccco1)c1ccc(-c2cc3ccccc3oc2=O)cc1` were, in that order, 115.7%, 47.79 and 67.95%.
In the same order, the values of `NNCc1c(Cl)cccc1Cl` are 103.5%, 47.77 and 55.76%.
With `COC(=O)c1ccc(C(c2cc3c(cc2O)OCO3)N2CCN(c3ccccc3)CC2)cc1` (stereo not drawn), on BCL-XLΔC, the “BCL-XL % Bound” value is given as 96.46%. The “Spec Values” in the assay with MCL-1ΔNΔC [1] was 47.71. Further, on MCL-1ΔNΔC [2], the “MCL-1% Bound” value is recorded as 48.75%.
Consider `CCOC(=O)c1c(N2C(=O)C3C4C=CC(O4)C3C2=O)sc2c1CCCC2` (stereo not drawn), for which, at BCL-XLΔC, the “BCL-XL % Bound” value is on record as 95.97%. Besides, the “Spec Values” with MCL-1ΔNΔC [1] is 47.7. For the same compound, the “MCL-1% Bound” value on MCL-1ΔNΔC [2] came out at 48.27%.
The like results for `CC1=NN(c2ccccc2)C(=O)/C1=C/c1ccc(OC(=O)c2ccco2)c(Cl)c1` were, in that order, 96.2%, 47.67 and 48.53%.
Take `CC1(C)CC(=O)C(=Cc2cn(-c3ccccc3)nc2-c2cccs2)C(=O)C1`: the “BCL-XL % Bound” value at BCL-XLΔC came to 90.62%. The “Spec Values” in the assay with MCL-1ΔNΔC [1] came out at 47.55. Further, on MCL-1ΔNΔC [2], the “MCL-1% Bound” value is listed as 43.07%.
The like results for `CCOc1cccc(CNc2ccc(N3CCCC3)cc2)c1` were, in that order, 82.24%, 47.31 and 34.93%.
`COC(=O)c1c(NC(=O)C2CC2)sc(C)c1C`: at BCL-XLΔC, the “BCL-XL % Bound” value came out at 101%. For the same compound, the “Spec Values” in the assay with MCL-1ΔNΔC [1] was found to be 47.29. The “MCL-1% Bound” value at MCL-1ΔNΔC [2] was found to be 53.71%.
`Oc1ccc(/C=N/c2cccc(C(F)(F)F)c2)c(O)c1`: at BCL-XLΔC, the “BCL-XL % Bound” value came out at 75.68%. For the same compound, the “Spec Values” in the assay on MCL-1ΔNΔC [1] is 47.26. At MCL-1ΔNΔC [2], the “MCL-1% Bound” value is given as 28.42%.
As for `COC(=O)C1C(=O)NC(S)=C(C#N)C1c1ccccc1Cl` (stereo not drawn), the “BCL-XL % Bound” value at BCL-XLΔC worked out at 94.15%. The “Spec Values” in the assay with MCL-1ΔNΔC [1] was determined as 47.12. Also, the “MCL-1% Bound” value at MCL-1ΔNΔC [2] was determined as 47.02%.
For the compound `Cn1c(S)nnc1CNc1cccc(C(F)(F)F)c1`, the “BCL-XL % Bound” value on BCL-XLΔC is 102.2%. Moreover, in the assay with MCL-1ΔNΔC [1], the “Spec Values” came to 47.12. For the same compound, the “MCL-1% Bound” value on MCL-1ΔNΔC [2] is given as 55.09%.
In the same order, the values of `C=CCN1C(=O)/C(=C2/C(=O)Nc3ccccc32)c2ccccc21` are 77.55%, 47.06 and 30.48%.
As for `O=C(CSc1nnc(C2CC2)n1Cc1ccco1)c1cccc(Cl)c1`, on BCL-XLΔC, the “BCL-XL % Bound” value came out at 98.2%. For the same compound, in the assay with MCL-1ΔNΔC [1], the “Spec Values” was determined as 47.06. For the same compound, the “MCL-1% Bound” value on MCL-1ΔNΔC [2] is reported as 51.14%.
